According to article PMC9679992, “Fusicoccin-A Targets Cancerous Inhibitor of Protein Phosphatase 2A by Stabilizing a C-Terminal Interaction with 14-3-3” (ACS Chemical Biology, 2022):
Where two headings read alike, the source gives them in different places. Peptide text beside a SMILES is read from it. * marks the point of attachment. Cbz = O=C(OCc1ccccc1)*

Columns and labels:
GST-14-3-3η = molecular target: T1, GST-14-3-3η (Homo sapiens, UniProt Q04917); assay: Fluorescent polarization, GST14-3-3η titrated to FAM-pCIP2A peptide; type: binding, Hs; conditions: FP, GST14-3-3η titrated to 100 nM FAM peptide, PBS pH 7.5, RT, 30 min
T1 construct: made in house; host or cells: Rosetta 2 (DE3)pLysS E. coli
T1 sequence (Q04917 1-246): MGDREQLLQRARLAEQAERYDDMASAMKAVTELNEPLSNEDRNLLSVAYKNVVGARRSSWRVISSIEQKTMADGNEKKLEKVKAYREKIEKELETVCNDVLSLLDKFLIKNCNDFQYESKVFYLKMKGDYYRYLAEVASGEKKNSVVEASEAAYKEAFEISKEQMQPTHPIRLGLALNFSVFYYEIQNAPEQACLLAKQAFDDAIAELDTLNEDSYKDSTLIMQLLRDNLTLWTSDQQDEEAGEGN
Protocol: Data is shown as mean ± SEM of three independent experiments. (E) Fluorescent polarization GST14-3-3η concentration–response curves generated in the presence of 10 μM FC-A or buffer using 100 nM of peptide 3. (F) Fluorescent polarization concentration–response curve of FC-A stabilizing the interaction between 1.5 μM GST14-3-3η and 100 nM peptide 3. Data is presented as the mean ± SEM of three independent experiments.
First, concentration–response curves were made using peptide 3, which was N-terminally labeled with fluorescein and in which Ser904 is phosphorylated by titrating to N-terminally GST-tagged 14-3-3η (GST-14-3-3η) at a fixed concentration of FC-A (10 μM) or a buffer control.
peptide was dissolved in phosphate saline buffer (PBS) with a pH of 7.5. Concentration curves of recombinant GST-14-3-3η were produced by mixing various concentrations of the protein diluted in assay buffer (PBS, pH=7.5) with a fixed 100 nM of the FAM labelled peptide and either a DMSO vehicle control or a fixed 10 μM Fusicoccin – A (FC-A). FC-A concentration curves were generated by mixing various concentrations of FC-A diluted in PBS with a fixed 100 nM of FAM - CIP2A and a fixed 4.7 μM of GST-14-3-3η. […]

ERα = conditions: cited from earlier work
14-3-3η/pCIP2A complex = assay: Fluorescent polarization, FC-A stabilization of 14-3-3η/pCIP2A; design: species or system Hs; conditions: FP, FC-A titrated to 100 nM peptide 3 and 1.5 μM GST14-3-3η (legend; SI: 4.7 μM); PBS, RT, 30 min; mean of three independent experiments; read-out: EC50 (FC-A enhancing binding of 14-3-3η to pCIP2A)
Excerpt: Figure 1 The C-terminus of CIP2A contains a mode-III 14-3-3 binding motif. (A) CIP2A’s C-terminus overlaid with 14-3-3 mode-III binding motif. The putative phosphosite is highlighted red with an alignment of the C-terminal amino acid sequence of CIP2A from different species shown below. (B) Chemical structure of Fusicoccin-A. (C) Overview of N-terminally biotinylated or fluorescein labeled CIP2A peptides either non- or phosphorylated on Ser904. (D) Homogeneous time-resolved FRET (HTRF) assay in which an N-terminally GST tagged 14-3-3η is targeted with an anti-GST europium (Eu) cryptate labeled monoclonal antibody and CIP2A peptides 1 and 2 used are N-terminally biotinylated and labeled with streptavidin conjugated to XL665. Concentration–response curves are shown for peptide 1 (Ser904) and peptide 2 (pSer904) in the presence or absence of a fixed 10 μM FC-A and 10 nM GST14-3-3η. Data is shown as mean ± SEM of three independent experiments. […]
FC-A beads were produced in a two-step reaction as previously described by Feyerabend and Weiler, 1987 by first generating FC-aldehyde (FC-Ald) which, was subsequently coupled to magnetic hydrazide beads (Chemicell, Cat#1404). […] Before coupling to magnetic hydrazide beads reaction efficiency was determined by HPLC analysis. […]

CIP2A / 14-3-3 = assay: GST14-3-3η pulldown of CIP2A from FC-A treated MDA-MB-468 cells; type: cell-based; conditions: cells treated with 30 μM FC-A 24 h vs control; two independent experiments
Protocol: (§1) (A) Cartoon showing FC-A coupled to magnetic hydrazide beads. (B) Western blot showing the results of an FC-beads pulldown experiment in MDA-MB-468 cell lysates. (C) Western blot of the GST14-3-3η pulldown of CIP2A in MDA-MB-468 cell lysates. […] (D) Western blot of MDA-MB-468 cell lysates after treatment of cells with 30 μM FC-A or a vehicle control for 24 h before harvest. Quantification was performed after normalization to an actin loading control. […] Membrane was probed with our custom CIP2A pS904, C-terminal CIP2A, and actin antibodies. (E) Western blot of GST14-3-3η pulldown of CIP2A in MDA-MB-468 cell lysates from cells either treated with 30 μM FC-A or a vehicle control for 24 h before harvest. Representative Western blots are shown of three (B–D) or two (E) independent experiments. […]

CIP2A = type: cell-based
Protocol: as §1

CIP2A Ser904 = type: cell-based
Protocol: as §1

[1] = test system: cancer cells, including breast cancer; conditions: FC-A and its derivatives; cited from earlier work
Excerpt: It has been shown that polo-like kinase 1 (PLK1) can bind to the C-terminal tip of CIP2A and phosphorylate its penultimate residue Ser904.[11] We hypothesized that phosphorylation of Ser904 could create a C-terminal binding site for the regulatory proteins 14-3-3, which act as molecular scaffolds in the cell through regulation of protein–protein interactions (PPIs) in key cellular processes. A unique feature of a subset of C-terminal 14-3-3 interactions is that they can be targeted by the diterpene glucoside Fusicoccin-A (FC-A) for PPI stabilization.[12],[13] In several studies, FC-A and its d ...

H^+-ATPase = conditions: 14-3-3/FC-A; cited from earlier work
GST-14-3-3η / CIP2A = assay: GST-14-3-3η pulldown of CIP2A, MDA-MB-468 cell lysates; type: binding; conditions: lysate preincubated with 200 μM ATP, 10 mM MgCl2, 1 hour 37 °C
Protocol: (A) Cartoon showing FC-A coupled to magnetic hydrazide beads. (B) Western blot showing the results of an FC-beads pulldown experiment in MDA-MB-468 cell lysates. (C) Western blot of the GST14-3-3η pulldown of CIP2A in MDA-MB-468 cell lysates. […] (D) Western blot of MDA-MB-468 cell lysates after treatment of cells with 30 μM FC-A or a vehicle control for 24 h before harvest. Quantification was performed after normalization to an actin loading control. […] Membrane was probed with our custom CIP2A pS904, C-terminal CIP2A, and actin antibodies. (E) Western blot of GST14-3-3η pulldown of CIP2A in MDA-MB-468 cell lysates from cells either treated with 30 μM FC-A or a vehicle control for 24 h before harvest. Representative Western blots are shown of three (B–D) or two (E) independent experiments.

[2] = molecular target: T2, 14-3-3η (N-terminally GST tagged) (Homo sapiens, UniProt Q04917); assay: HTRF assay of CIP2A C-terminal peptides with GST14-3-3η; type: binding, Hs; conditions: HTRF concentration–response, nonphosphorylated peptide; 10 nM GST14-3-3η; presence or absence of 10 μM FC-A
T2 construct: made in house; host or cells: Rosetta 2 (DE3)pLysS E. coli
T2 sequence (Q04917 1-246): T1 sequence (Q04917 1-246)
Excerpt: Therefore, using (non)phosphorylated C-terminal CIP2A peptides, we investigated whether 14-3-3 could directly interact with CIP2A (Figure 1C). First, we developed a homogeneous time-resolved FRET (HTRF) assay for this putative interaction and its phosphorylation dependence (Figure 1D). […] Europium is excited at a wavelength of 337 nm resulting in emission at a wavelength of 620 nm. If 14-3-3 interacts with the CIP2A peptide, resonance energy transfer can occur resulting in excitation and emission of XL665 at a wavelength of 665 nm.
Data is shown as mean ± SEM of three independent experiments. […] Data is presented as the mean ± SEM of three independent experiments.

Compound: CC[C@H](C)[C@H](NC(=O)[C@H](COP(=O)(O)O)NC(=O)[C@H](CC(C)C)NC(=O)[C@H](CC(N)=O)NC(=O)[C@@H](NC(=O)[C@@H](NC(=O)[C@H](CCC(=O)O)NC(=O)[C@@H]1CCCN1C(=O)[C@H](CC(N)=O)NC(=O)[C@@H](NC(=O)c1ccc2c(c1)C(=O)OC21c2ccc(O)cc2Oc2cc(O)ccc21)[C@@H](C)CC)[C@@H](C)O)C(C)C)C(=O)O [FAM-pCIP2A peptide]
- EC50 (GST-14-3-3η; buffer / DMSO control, read-out: EC50): 118 µM
- EC50 (GST-14-3-3η; fixed 10 μM FC-A, read-out: EC50 (shift in presence of FC-A)): 2.76 µM

Compound: CC(C)C[C@@H](C=O)NC(=O)[C@H](CC(C)C)NC(=O)[C@H](CC(C)C)NC(=O)OCc1ccccc1 [MG132] (Cbz-Leu-Leu-Leu-aldehyde)
- effect on phosphorylation of ERα C-terminal tip (ERα; proteasome inhibitor MG132, in addition to FC-A): additional requirement for phosphorylation of the C-terminal tip

Compound: C=CC(C)(C)OC[C@H]1O[C@H](O[C@@H]2C3=C([C@H](C)COC(C)=O)C[C@H](O)[C@]3(C)/C=C3/[C@@H](COC)CC[C@H]3[C@@H](C)[C@H]2O)[C@H](O)[C@@H](OC(C)=O)[C@@H]1O [FC-A, Fusicoccin-A]
- effect on detection of C-terminal phosphorylation of ERα (ERα; MCF-7 cells treated with FC-A): necessary to detect C-terminal phosphorylation of the ERα
- EC50 (14-3-3η/pCIP2A complex): 11.8 µM
- CIP2A in GST-14-3-3η pulldown (CIP2A / 14-3-3): more CIP2A could be detected in these samples compared to control cell lysates
- Fold Change (Norm. to CTL): CIP2A Tot. (CIP2A): 0.79
- effect on total CIP2A in presence of cycloheximide (CIP2A; 30 μM FC-A with 100 µg/mL cycloheximide, 24 h, MDA-MB-468, three independent experiments): no changes in total CIP2A over a 24 h period
- effect on total CIP2A (CIP2A; FC-A 24 h, MDA-MB-468): did not affect total CIP2A
- Fold Change (Norm. to CTL): CIP2A pS904 (CIP2A Ser904): 2.55
- effect on Ser904 phosphorylation levels (CIP2A Ser904; FC-A 24 h, MDA-MB-468): Ser904 phosphorylation levels were enhanced
- antiproliferative effects [1]: antiproliferative effects in cancer cells, including breast cancer
- protection of penultimate C-terminal phosphorylation site (H^+-ATPase): shields the penultimate C-terminal phosphorylation site from phosphatases

Compound: Nc1ncnc2c1ncn2[C@@H]1O[C@H](COP(=O)(O)OP(=O)(O)OP(=O)(O)O)[C@@H](O)[C@H]1O [ATP]
- effect on CIP2A pulldown by GST-14-3-3η (GST-14-3-3η / CIP2A): more CIP2A was identified in pulldown samples

Compound: Bio-LSSGGKINPETVNL-S^904-I-COOH [peptide 1, N-terminally biotinylated nonphosphorylated C-terminal CIP2A peptide]
- interaction with 14-3-3 [2]: does not interact with 14-3-3
